Assay results from PubChem BioAssay (NCI).
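48-hour exposure; five concentrations; linearly interpolated endpoints. GI50 is the concentration that inhibits growth by half. Definition used: TGI = concentration required for complete inhibition of growth.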

What was measured:
Test in all cases: NCI-60 cell line screen, 48 h
K-562 leukemia = test system: K-562 leukemia
PC-3 prostate = test system: PC-3 prostate
SNB-19 CNS = test system: SNB-19 CNS
HCC-2998 colon = test system: HCC-2998 colon
HCT-116 colon = test system: HCT-116 colon
TK-10 renal = test system: TK-10 renal
IGROV1 ovarian = test system: IGROV1 ovarian
OVCAR-3 ovarian = test system: OVCAR-3 ovarian
ACHN renal = test system: ACHN renal
MALME-3M melanoma = test system: MALME-3M melanoma

Compound	GI50 (K-562 leukemia) [µM]	TGI (K-562 leukemia) [µM]	GI50 (PC-3 prostate) [µM]	TGI (PC-3 prostate) [µM]	GI50 (SNB-19 CNS) [µM]	TGI (SNB-19 CNS) [µM]	GI50 (HCC-2998 colon) [µM]	TGI (HCC-2998 colon) [µM]	GI50 (HCT-116 colon) [µM]	TGI (HCT-116 colon) [µM]	GI50 (TK-10 renal) [µM]	TGI (TK-10 renal) [µM]	GI50 (IGROV1 ovarian) [µM]	TGI (IGROV1 ovarian) [µM]	GI50 (OVCAR-3 ovarian) [µM]	TGI (OVCAR-3 ovarian) [µM]	GI50 (ACHN renal) [µM]	TGI (ACHN renal) [µM]	GI50 (MALME-3M melanoma) [µM]	TGI (MALME-3M melanoma) [µM]
CCCCn1c(=O)c2c(nc3n2CCCN3CCc2ccc(OCC(=O)NCCN(CC)CC)cc2)n(CCCC)c1=O	1.31	4.39	1.19	5.37	3.24	11.4	2.93	9.73	1.63	6.42	7.26	14.6	5.83	15.4	4.7	11.2	2.98	10.6	0.922	1.98
C#CCOc1cccc(Nc2ncnc3c(NC(=O)CCl)cccc23)c1	17.5	71.7	22.8	55.6	33.9	> 100	17.7	34	18.1	42.1	40.1	> 100	17	37.9	16.5	31.7	18.1	37.8	16.1	35
Cc1cccc(NC(=O)c2sc3nc4c(cc3c2N)CN(Cc2ccccc2)CC4)c1C	0.104	> 50	0.21	> 50	0.283	> 50	5.39	> 50	0.227	> 50	5.36	> 50	0.337	> 50	0.194	31.9	0.409	> 50	0.239	> 50
Nc1ccccc1SCc1csc(-c2ccc(Cl)cc2)n1		63.9		> 71.5		> 100		47.1		> 100		> 100		> 100		> 67.6		73.2		47
CCn1c2ccccc2c2cc(/C=C(/C#N)C(N)=O)ccc21	4.49	> 100	21.6	> 100	10.2	> 87.8	4.22	25.3	3.71	> 52.4	2.31	> 28.8	2.87	> 51.9	3.43	19.1	> 76	> 100	> 75.2	> 100
COc1ccc(C(=O)N2c3ccccc3Sc3ccccc32)c(OC)c1	0.381	> 100	0.43	> 100	0.551	> 100	1.49	8.09	0.452	> 100	> 100	> 100	0.926	> 100	0.322	1.14	0.726	> 100	0.416	> 100
COc1ccc2c(c1)OC1=C(C(=O)OC1)C2c1cc(OC)c2c(c1)OCO2 (stereo not drawn)	0.033	> 100	0.0403	> 100	0.0531	> 100	0.0424	> 35.1	0.0366	7.16	0.268	> 100	0.0716	> 100	0.0214	0.0458	0.267	> 100	> 100	> 100
O=C1NC(=O)C(c2cccc(Cl)c2)=C1Nc1ccc(O)c(Cl)c1	11.7	> 25	12.2	> 25	15.9	> 25	24.6	> 25	9.6	> 25	8.66	> 25	12.9	> 25	7.86	> 21.9	11.4	> 25	15.9	> 25
CN(CC(N)=O)C(=O)N(CCCl)N=O		> 100		> 100		> 100		> 100		> 100		> 100		> 100		> 100		> 100		> 100
COc1ccc(C2[C@@H](Cl)C(=O)N2c2cc(OC)c(OC)c(OC)c2)cc1Cl (stereo partly drawn)	0.041	> 100	0.0642	> 100	0.293	> 100	0.41	17.6	0.0721	15.2	0.94	71.7	0.343	41.5	0.12	0.576	0.0798	49.1	20.7	72.4
BrCc1ccc(CBr)cc1	7.1	> 20.6	5.3		0.528	25.8	6.4	15.3	5.4		1.58	5.99	7	> 87.4	4.1	17.4	1.94	6.78	4.56	12.5
O=C(Nc1cccc(Nc2ncc(Br)c(NCCc3cnc[nH]3)n2)c1)N1CCCC1	2.84	> 64.9	3.2	45.6	9.02	> 61.4	9.11	24.3	1.56	> 60	3.87	20	3.23	28.8	4.62	24.3	11	56	6.19	20
